The supplement of paper PMC10307832

Columns and labels:
Assay in all cases: relative viability (nuclei count vs DMSO), 5 days (fraction); higher = more cells survive
XMD14-99 + Tozasertib = compound: CN1CCN(CC1)C2=CC(=C(C=C2)NC3=NC(=C(S3)C(=O)C4=C(C=CC=C4Cl)Cl)N)OC [XMD14-99] + Cc1cc(Nc2cc(N3CCN(C)CC3)nc(Sc3ccc(NC(=O)C4CC4)cc3)n2)n[nH]1 [Tozasertib] (partner 0.1 µM)
How it was run: (§1)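 Lung cancer cell lines, seeded in 1536-well plates, were treated the following day by pin tool with a single drug or with five library-drug doses (not always all listed) in √10 steps on top of a fixed anchor-drug dose. Cells were fixed and nuclei stained in one step after 5 days, and nuclei were counted. Relative viability is the nuclei count for treated wells divided by that for vehicle wells, reported as medians of duplicate plates.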

AZD1208 + Foretinib = compound: N[C@@H]1CCCN(c2c(/C=C3\SC(=O)NC3=O)cccc2-c2ccccc2)C1 [AZD1208] + COc1cc2c(Oc3ccc(NC(=O)C4(C(=O)Nc5ccc(F)cc5)CC4)cc3F)ccnc2cc1OCCCN1CCOCC1 [Foretinib] (partner 0.25 µM)
How it was run: as §1

AZD1208 + Bortezomib = compound: N[C@@H]1CCCN(c2c(/C=C3\SC(=O)NC3=O)cccc2-c2ccccc2)C1 [AZD1208] + CC(C)C[C@H](NC(=O)[C@H](Cc1ccccc1)NC(=O)c1cnccn1)B(O)O [Bortezomib] (partner 0.002 µM)
How it was run: as §1

AZD1208 + Linsitinib = compound: N[C@@H]1CCCN(c2c(/C=C3\SC(=O)NC3=O)cccc2-c2ccccc2)C1 [AZD1208] + C[C@]1(O)C[C@@H](c2nc(-c3ccc4ccc(-c5ccccc5)nc4c3)c3c(N)nccn32)C1 [Linsitinib] (partner 1 µM)
How it was run: as §1

Cell Line	relative viability (XMD14-99 + Tozasertib; first compound 0.08 µM)	relative viability (XMD14-99 + Tozasertib; first compound 0.8 µM)	relative viability (XMD14-99 + Tozasertib; first compound 2.53 µM)	relative viability (XMD14-99 + Tozasertib; first compound 8 µM)	relative viability (AZD1208 + Foretinib; first compound 0.08 µM)	relative viability (AZD1208 + Foretinib; first compound 0.253 µM)	relative viability (AZD1208 + Foretinib; first compound 0.8 µM)	relative viability (AZD1208 + Foretinib; first compound 2.53 µM)	relative viability (AZD1208 + Foretinib; first compound 8 µM)	relative viability (AZD1208 + Bortezomib; first compound 0.08 µM)	relative viability (AZD1208 + Bortezomib; first compound 0.253 µM)	relative viability (AZD1208 + Bortezomib; first compound 0.8 µM)	relative viability (AZD1208 + Bortezomib; first compound 2.53 µM)	relative viability (AZD1208 + Bortezomib; first compound 8 µM)	relative viability (AZD1208 + Linsitinib; first compound 0.08 µM)	relative viability (AZD1208 + Linsitinib; first compound 0.253 µM)	relative viability (AZD1208 + Linsitinib; first compound 0.8 µM)	relative viability (AZD1208 + Linsitinib; first compound 2.53 µM)	relative viability (AZD1208 + Linsitinib; first compound 8 µM)
LCLC-103H	0.494	0.487	0.465	0.44	0.771	0.665	0.56	0.558	0.485	1.01	1.12	1.02	0.949	0.85	1.04	1.09	1.06	1.11	0.891
LOU-NH91	0.709	0.631	0.645	0.533	0.943	0.876	0.874	0.93	0.909	0.539	0.516	0.564	0.504	0.593	0.953	0.934	0.855	0.949	0.822
LU99A	0.294	0.236	0.212	0.196	0.707	0.882	0.782	0.82	0.611	1.07	1.2	1.27	1.12	0.904	0.504	0.5	0.51	0.397	0.432
LXF-289	0.183	0.205	0.196	0.171	0.978	1.03	0.996	0.962	1.03	1.04	1.1	0.999	1.07	1.15	0.982	1.01	0.966	1.01	1.01
NCI-H23	0.453	0.352	0.279	0.263	0.914	0.648	0.9	0.967	0.748	1.01	1.07	0.926	1.14	0.634	0.453	0.539	0.462	0.434	0.461
NCI-H322M	0.501	0.488	0.558	0.414	0.925	0.873	0.869	0.966	0.996	1.21	1.31	1.21	1.15	1.25	0.954	0.98	0.828	0.829	0.84
NCI-H441	0.693	0.599	0.554	0.354	1.1	0.761	0.764	0.712	0.718	0.322	0.593	0.419	0.455	0.419	0.477	0.593	0.381	0.497	0.457
NCI-H460	0.408	0.376	0.45	0.188	0.992	1.09	0.978	0.987	1.11	1.04	1.63	1.06	1.13	0.925	0.724	0.843	0.817	0.711	0.539
